Measurements taken from the supplement of paper PMC10307832.

Experiments:
Test in all cases: relative viability (nuclei count vs DMSO), 5 days (fraction); higher = more cells survive
NCI-H2126 = test system: NCI-H2126
Procedure, shortened: (§1)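 Dosing by pin tool came one day after lung cancer cell lines were seeded in 1536-well plates, using either one drug or a fixed anchor-drug dose plus five library-drug doses (not always all listed) in √10 steps. After 5 days, nuclei were counted on 4× images. Relative viability is treated-well nuclei count divided by vehicle-well nuclei count, and values are medians of duplicate plates.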

HCC-827 = test system: HCC-827
Procedure, shortened: as §1

NCI-H1650 = test system: NCI-H1650
Procedure, shortened: as §1

LK-2 = test system: LK-2
Procedure, shortened: as §1

COR-L23 = test system: COR-L23
Procedure, shortened: as §1

EKVX = test system: EKVX
Procedure, shortened: as §1

NCI-H2087 = test system: NCI-H2087
Procedure, shortened: as §1

BEN = test system: BEN
Procedure, shortened: as §1

EMC-BAC-2 = test system: EMC-BAC-2
Procedure, shortened: as §1

NCI-H1915 = test system: NCI-H1915
Procedure, shortened: as §1

EPLC-272H = test system: EPLC-272H
Procedure, shortened: as §1

NCI-H1793 = test system: NCI-H1793
Procedure, shortened: as §1

LCLC-103H = test system: LCLC-103H
Procedure, shortened: as §1

HCC-44 = test system: HCC-44
Procedure, shortened: as §1

NCI-H2347 = test system: NCI-H2347
Procedure, shortened: as §1

LXF-289 = test system: LXF-289
Procedure, shortened: as §1

A-427 = test system: A-427
Procedure, shortened: as §1

SW 1573 = test system: SW 1573
Procedure, shortened: as §1

NCI-H1651 = test system: NCI-H1651
Procedure, shortened: as §1

201T = test system: 201T
Procedure, shortened: as §1

NCI-H358 = test system: NCI-H358
Procedure, shortened: as §1

NCI-H460 = test system: NCI-H460
Procedure, shortened: as §1

O=c1[nH]c2ccccc2n1C1CCN(CCCC(c2ccc(F)cc2)c2ccc(F)cc2)CC1 [Pimozide] + CC(=O)c1c(C)c2cnc(Nc3ccc(N4CCNCC4)cn3)nc2n(C2CCCC2)c1=O [Palbociclib] (partner 0.5 µM)
relative viability (NCI-H2126; first compound 0.08 µM): 0.373 | relative viability (NCI-H2126; first compound 0.253 µM): 0.321 | relative viability (NCI-H2126; first compound 0.8 µM): 0.369 | relative viability (NCI-H2126; first compound 2.53 µM): 0.363 | relative viability (NCI-H2126; first compound 8 µM): 0.365 | relative viability (HCC-827; first compound 0.253 µM): 0.449 | relative viability (HCC-827; first compound 0.8 µM): 0.459 | relative viability (HCC-827; first compound 2.53 µM): 0.484 | relative viability (HCC-827; first compound 8 µM): 0.514 | relative viability (NCI-H1650; first compound 0.08 µM): 0.287 | relative viability (NCI-H1650; first compound 0.253 µM): 0.378 | relative viability (NCI-H1650; first compound 0.8 µM): 0.265 | relative viability (NCI-H1650; first compound 2.53 µM): 0.352 | relative viability (NCI-H1650; first compound 8 µM): 0.271 | relative viability (LK-2; first compound 0.08 µM): 0.646 | relative viability (LK-2; first compound 0.253 µM): 0.599 | relative viability (LK-2; first compound 0.8 µM): 0.698 | relative viability (LK-2; first compound 8 µM): 0.562 | relative viability (COR-L23; first compound 0.08 µM): 0.291 | relative viability (COR-L23; first compound 0.253 µM): 0.346 | relative viability (COR-L23; first compound 0.8 µM): 0.293 | relative viability (COR-L23; first compound 2.53 µM): 0.267 | relative viability (COR-L23; first compound 8 µM): 0.307 | relative viability (EKVX; first compound 0.253 µM): 0.4 | relative viability (EKVX; first compound 0.8 µM): 0.343 | relative viability (EKVX; first compound 2.53 µM): 0.387 | relative viability (EKVX; first compound 8 µM): 0.37 | relative viability (NCI-H2087; first compound 0.08 µM): 0.197 | relative viability (NCI-H2087; first compound 0.253 µM): 0.233 | relative viability (NCI-H2087; first compound 2.53 µM): 0.274 | relative viability (NCI-H2087; first compound 8 µM): 0.195 | relative viability (BEN; first compound 0.08 µM): 0.442 | relative viability (BEN; first compound 0.253 µM): 0.472 | relative viability (BEN; first compound 0.8 µM): 0.451 | relative viability (BEN; first compound 2.53 µM): 0.457 | relative viability (BEN; first compound 8 µM): 0.494 | relative viability (EMC-BAC-2; first compound 0.08 µM): 0.517 | relative viability (EMC-BAC-2; first compound 0.253 µM): 0.505 | relative viability (EMC-BAC-2; first compound 0.8 µM): 0.511 | relative viability (EMC-BAC-2; first compound 2.53 µM): 0.506 | relative viability (EMC-BAC-2; first compound 8 µM): 0.495 | relative viability (NCI-H1915; first compound 0.08 µM): 0.435 | relative viability (NCI-H1915; first compound 0.253 µM): 0.498 | relative viability (NCI-H1915; first compound 2.53 µM): 0.501 | relative viability (NCI-H1915; first compound 8 µM): 0.477 | relative viability (EPLC-272H; first compound 0.08 µM): 0.309 | relative viability (EPLC-272H; first compound 0.253 µM): 0.308 | relative viability (EPLC-272H; first compound 0.8 µM): 0.328 | relative viability (EPLC-272H; first compound 2.53 µM): 0.329 | relative viability (EPLC-272H; first compound 8 µM): 0.333 | relative viability (NCI-H1793; first compound 0.08 µM): 0.263 | relative viability (NCI-H1793; first compound 0.253 µM): 0.289 | relative viability (NCI-H1793; first compound 0.8 µM): 0.306 | relative viability (NCI-H1793; first compound 2.53 µM): 0.285 | relative viability (NCI-H1793; first compound 8 µM): 0.339 | relative viability (LCLC-103H; first compound 0.08 µM): 0.451 | relative viability (LCLC-103H; first compound 0.253 µM): 0.46 | relative viability (LCLC-103H; first compound 0.8 µM): 0.428 | relative viability (LCLC-103H; first compound 2.53 µM): 0.444 | relative viability (LCLC-103H; first compound 8 µM): 0.489 | relative viability (HCC-44; first compound 0.08 µM): 0.975 | relative viability (HCC-44; first compound 0.253 µM): 0.982 | relative viability (HCC-44; first compound 0.8 µM): 0.946 | relative viability (HCC-44; first compound 2.53 µM): 0.925 | relative viability (HCC-44; first compound 8 µM): 0.859 | relative viability (NCI-H2347; first compound 0.08 µM): 0.432 | relative viability (NCI-H2347; first compound 0.253 µM): 0.418 | relative viability (NCI-H2347; first compound 0.8 µM): 0.463 | relative viability (NCI-H2347; first compound 2.53 µM): 0.455 | relative viability (NCI-H2347; first compound 8 µM): 0.407 | relative viability (LXF-289; first compound 0.08 µM): 0.588 | relative viability (LXF-289; first compound 0.253 µM): 0.607 | relative viability (LXF-289; first compound 0.8 µM): 0.571 | relative viability (LXF-289; first compound 2.53 µM): 0.574 | relative viability (LXF-289; first compound 8 µM): 0.586 | relative viability (A-427; first compound 0.08 µM): 0.531 | relative viability (A-427; first compound 0.253 µM): 0.57 | relative viability (A-427; first compound 0.8 µM): 0.462 | relative viability (A-427; first compound 2.53 µM): 0.457 | relative viability (A-427; first compound 8 µM): 0.497 | relative viability (SW 1573; first compound 0.08 µM): 0.422 | relative viability (SW 1573; first compound 0.253 µM): 0.318 | relative viability (SW 1573; first compound 0.8 µM): 0.249 | relative viability (SW 1573; first compound 2.53 µM): 0.214 | relative viability (SW 1573; first compound 8 µM): 0.146 | relative viability (NCI-H1651; first compound 0.08 µM): 0.514 | relative viability (NCI-H1651; first compound 0.253 µM): 0.466 | relative viability (NCI-H1651; first compound 0.8 µM): 0.534 | relative viability (NCI-H1651; first compound 2.53 µM): 0.497 | relative viability (NCI-H1651; first compound 8 µM): 0.546 | relative viability (201T; first compound 0.08 µM): 0.363 | relative viability (201T; first compound 0.253 µM): 0.356 | relative viability (201T; first compound 0.8 µM): 0.337 | relative viability (201T; first compound 2.53 µM): 0.314 | relative viability (201T; first compound 8 µM): 0.342 | relative viability (NCI-H358; first compound 0.08 µM): 0.141 | relative viability (NCI-H358; first compound 0.253 µM): 0.132 | relative viability (NCI-H358; first compound 0.8 µM): 0.127 | relative viability (NCI-H358; first compound 2.53 µM): 0.147 | relative viability (NCI-H358; first compound 8 µM): 0.143 | relative viability (NCI-H460; first compound 0.08 µM): 0.137 | relative viability (NCI-H460; first compound 0.253 µM): 0.188 | relative viability (NCI-H460; first compound 0.8 µM): 0.139 | relative viability (NCI-H460; first compound 2.53 µM): 0.221 | relative viability (NCI-H460; first compound 8 µM): 0.184
